Experimental data published in patent US8415376B2, “Inhibitors of PI3 kinase” (Amgen Inc., priority 2008, dated 2013).

Experiments:
[1] = biological target: T1, PI3Kα (Homo sapiens, UniProt P42336); assay: In vitro PI3K AlphaScreen assay; assay type: biochemical; conditions: average if run more than once
T1 construct: Full length p110 subunits of PI3K α, β and δ, N-terminally labeled with polyHis tag; polyHis (N); made in house; host or cells: Sf9 insect cells (baculovirus)
Experimental: In Vitro PI3K Alphascreen® Assay
The PI3K AlphaScreen® assay (PerkinElmer, Waltham, Mass.) measures the activity of a panel of four phosphoinositide 3-kinases: PI3Kα, PI3Kβ, PI3Kγ, and PI3Kδ. Each of these enzymes phosphorylates the 3′-hydroxyl group on phosphatidylinositiol (4,5)-bisphosphate (PIP2) to produce phosphatidylinositol (3,4,5)-trisphosphate (PIP3). This phosphorylation activity is measured using a GST-tagged PIP3 binding protein (Echelon Biosciences, Salt Lake City, Utah), an anti-GST-tagged Acceptor bead, and streptavidin-Donor bead. […] In the absence of this interaction, proximity of the Donor and Acceptor beads is decreased, producing a loss of luminescent signal which is inversely proportional to PI3K activity.
The enzyme reaction buffer is made using sterile water (Baxter, Deerfield, Ill.) and 50 mM Tris HCl pH 7, 14 mM MgCl2, 2 mM sodium cholate, and 100 mM NaCl. 2 mM DTT is added fresh the day of the experiment. The AlphaScreen® reaction buffer is made using sterile water and 10 mM Tris HCl pH 7.5, 150 mM NaCl, 0.10% Tween 20, and 30 mM EDTA. 1 mM DTT is added fresh the day of the experiment.
The source plates for this assay are 384-well Greiner clear polypropylene plates containing test compounds at 5mM and diluted 1:2 over 22 points. […] Source plates are replicated into 384-well Optiplates (PerkinElmer, Waltham, Mass.), 0.5 μL/well, to make assay-ready plates.
The different PI3K isoforms are each diluted in enzyme reaction buffer to 2× working solutions. […] Two different 2× substrate solutions are made in enzyme reaction buffer. In one solution, PI(4,5)P2 (Echelon Biosciences, Salt Lake City, Utah) is diluted to 10 μM and ATP is diluted to 20 μM. This solution is used in the assays testing PI3Kα and PI3Kβ. In a second solution, PI(4,5)P2 is diluted to 10 μM and ATP is diluted to 8 μM. This solution used in the assays testing PI3Kγ and PI3Kδ.
The AlphaScreen® reaction solutions are made using beads from the anti-GST AlphaScreen® kit (PerkinElmer, Waltham, Mass.). Two solutions are made in Alphascreen reaction buffer to 4× working concentrations. In one solution, biotinylated-IP4 (Echelon Biosciences, Salt Lake City, Utah) is diluted to 40 nM and streptavadin-Donor Beads are diluted to 80 μg/mL. In the second solution, PIP3-binding protein (Echelon Biosciences, Salt Lake City, Utah) is diluted to 40 nM and anti-GST-Acceptor Beads are diluted to 80 μg/mL. 10 μL/well of enzyme reaction buffer is added to Column 24 of the assay ready plates in place of enzyme. This is done for plates in the PI3Kα, β, and 67 assays.
Using a 384-well dispensing Multidrop (Titertek, Huntsville, Ala.), 10 μL/well of 2× enzyme (PI3Kα, β, δ) is added to Columns 1-23 of the appropriate assay ready plates (for PI3Kγ 10 μL is added to Columns 1-24). 10 μL/well of the appropriate substrate solution (the solution with 20 μM ATP for PI3Kα and β assays, and the solution with 8 μM ATP for PI3Kγ and δ assays) is then added to Columns 1-24 of the plates. Plates are then incubated at room temperature for 20 minutes.
In the dark, 10 μL/well of the Donor Bead solution is added to Columns 1-24 of the plates to quench the enzyme reaction. The plates are incubated at room temperature for 30 minutes. Still in the dark, 10 μL/well of the Acceptor Bead solution is also added to Columns 1-24 of the plates. The plates are then incubated in the dark for 1.5 hours. The plates are read on an Envision Multilabel Plate Reader (PerkinElmer, Waltham, Mass.) with a 680 nm excitation filter and a 520-620 nm emission filter.

[2] = biological target: T2, mTOR (Homo sapiens, UniProt P42345); assay: In vitro mTOR assay (Lanthascreen); assay type: biochemical; conditions: average if run more than once
T2 construct: purchased Invitrogen (Carlsbad, Calif.)
From the text: The Invitrogen (Carlsbad, Calif.) mammalian target of rapamycin (mTOR) Lanthascreen assay can be used to quantitate mTOR kinase activity in an in vitro setting. Active mTOR phosphorylates eukaryotic translation initiation factor 4E binding protein 1 (4E-BP1) on residue threonine 46. This phosphorylation event can be detected with a phospho-specific terbium (Tb) labeled Ab, in turn bringing the Tb label in close proximity to the GFP tagged 4E-BP1 and allowing for time-resolved fluorescence resonance energy transfer (TR-FRET), which correlates 4E-BP1 phosphorylation levels with mTOR kinase activity.
Enzyme reaction buffer can be prepared in deionized water containing 50 mM HEPES (pH 7.5), 0.01% Polysorbate 20, 1 mM EGTA, and 10 mM MnCl2.
Dilutions of the compound to be tested can be prepared in 96-well polypropylene plates (Fisher Scientific, Waltham, Mass.). One row represents a 10-point dose of compound diluted 1:3 in enzyme reaction buffer and 20% dimethyl sulfoxide (DMSO). The top concentration for all compounds is 36 μM. Wells 6 and 12 can serve as the no compound (DMSO only) and high compound controls.
An mTOR substrate solution can prepared in enzyme reaction buffer containing 1600 nM green fluorescent protein tagged eukaryotic translation initiation factor 4E binding protein 1 (GFP-4E-BP1) (Invitrogen, Carlsbad, Calif.) and 28 uM adenosine triphosphate (ATP) (Calbiochem, Gibbstown, N.J.).
mTOR enzyme (Invitrogen, Carlsbad, Calif.) can be diluted in enzyme reaction buffer to a working concentration of 100 ng/mL.
The enzyme assay can be run in 384 well low volume assay plates (Corning, Corning, N.Y.). 2.5 uL of substrate solution containing GFP-4E-BP1 and ATP can be added to appropriate wells in the assay plate followed by 2.5 μL of compound dilutions. 5 μL of appropriately diluted mTOR enzyme can be added and the reaction allowed to proceed for 1 hour at room temperature. Final reagent concentrations in the enzyme assay are 50 ng/mL mTOR, 400 nM GFP-4E-BP1, and 7 μM ATP.
The enzyme assay can be terminated upon the addition of 10 μL of 20 mM EDTA and 4 nM Tb-labeled anti-phospho-4E-BP1 [T46] antibody (Invitrogen, Carlsbad, Calif.). The assay plate can then be incubated at room temperature for 1 hour and results read on a Tecan Safire II plate reader (Tecan, Männedorf, Switzerland).

[3] = biological target: T1, PI3Kα; assay: In vitro PI3 kinase enzyme assay (PI3K ATP loss), alpha; assay type: biochemical; conditions: average if run more than once; read-out: ATP Loss (PBKα) IC50 μM (Avg)
Experimental: Full length p110 subunits of PI3K α, β and δ, N-terminally labeled with polyHis tag, can be co-expressed with p85 with Baculo virus expression vectors in sf9 insect cells. P110/p85 heterodimers can be purified by sequential Ni-NTA, Q-HP, Superdex-100 chromatography. Purified α, β and δ isozymes can be stored at −20° C. in 20 mM Tris, pH 8, 0.2M NaCl, 50% glycerol, 5 mM DTT, 2 mM Na cholate. […] The γ isozyme can be purified by sequential Ni-NTA, Superdex-200, Q-HP chromatography. The γ isozyme can be stored frozen at −80° C. in NaH2PO4, pH 8, 0.2M NaCl, 1% ethylene glycol, 2 mM β-mercaptoethanol.
In Vitro PI3 Kinase Enzyme Assays (PI3K Atploss)
PI3K enzyme assays (alpha, beta, delta and gamma) can be performed in 25 μL with the above final concentrations of components in white polyproplyene plates. Phosphatidyl inositol phosphoacceptor, PtdIns(4,5)P2 (eg. P4508) can be obtained from Echelon Biosciences, Salt Lake City, Utah. […] Test compounds can be dissolved in DMSO and diluted with three-fold serial dilutions. The compound in DMSO (1 μL) may be added per test well, and the inhibition relative to reactions containing no compound, with and without enzyme can be determined After assay incubation at RT, the reaction can be stopped and residual ATP can be determined by addition of an equal volume of a commercial ATP bioluminescence kit (Perkin Elmer EasyLite, Perkin Elmer, Waltham, Mass.) according to the manufacturer's instructions, and detected using an Analyst GT luminometer.

[4] = biological target: T3, PI3Kβ (Homo sapiens, UniProt P42338); assay: In vitro PI3 kinase enzyme assay (PI3K ATP loss), beta; assay type: biochemical; conditions: average if run more than once
T3 construct: Full length p110 subunits of PI3K α, β and δ, N-terminally labeled with polyHis tag; polyHis (N); made in house; host or cells: Sf9 insect cells (baculovirus)

[5] = tested on: phosphorylation of Akt at Ser473; assay: Cell-based phospho-Akt Ser473 assay (HCT116 cell); conditions: HCT 116 human colon carcinoma cells, IGF-1 stimulated; average
How it was run: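 HCT116 human colon carcinoma cells, 16,000/well, were treated with compounds in a 10-point 3-fold series for 2 h at 37 °C in McCoy's with 0.1% BSA. They were then stimulated with IGF-1 at 100 ng/ml for 15 min. Phospho-Akt Ser473 in lysates was measured by MSD electrochemiluminescent sandwich immunoassay, and IC50 came from dose-response.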

T1 sequence (P42336 whole entry): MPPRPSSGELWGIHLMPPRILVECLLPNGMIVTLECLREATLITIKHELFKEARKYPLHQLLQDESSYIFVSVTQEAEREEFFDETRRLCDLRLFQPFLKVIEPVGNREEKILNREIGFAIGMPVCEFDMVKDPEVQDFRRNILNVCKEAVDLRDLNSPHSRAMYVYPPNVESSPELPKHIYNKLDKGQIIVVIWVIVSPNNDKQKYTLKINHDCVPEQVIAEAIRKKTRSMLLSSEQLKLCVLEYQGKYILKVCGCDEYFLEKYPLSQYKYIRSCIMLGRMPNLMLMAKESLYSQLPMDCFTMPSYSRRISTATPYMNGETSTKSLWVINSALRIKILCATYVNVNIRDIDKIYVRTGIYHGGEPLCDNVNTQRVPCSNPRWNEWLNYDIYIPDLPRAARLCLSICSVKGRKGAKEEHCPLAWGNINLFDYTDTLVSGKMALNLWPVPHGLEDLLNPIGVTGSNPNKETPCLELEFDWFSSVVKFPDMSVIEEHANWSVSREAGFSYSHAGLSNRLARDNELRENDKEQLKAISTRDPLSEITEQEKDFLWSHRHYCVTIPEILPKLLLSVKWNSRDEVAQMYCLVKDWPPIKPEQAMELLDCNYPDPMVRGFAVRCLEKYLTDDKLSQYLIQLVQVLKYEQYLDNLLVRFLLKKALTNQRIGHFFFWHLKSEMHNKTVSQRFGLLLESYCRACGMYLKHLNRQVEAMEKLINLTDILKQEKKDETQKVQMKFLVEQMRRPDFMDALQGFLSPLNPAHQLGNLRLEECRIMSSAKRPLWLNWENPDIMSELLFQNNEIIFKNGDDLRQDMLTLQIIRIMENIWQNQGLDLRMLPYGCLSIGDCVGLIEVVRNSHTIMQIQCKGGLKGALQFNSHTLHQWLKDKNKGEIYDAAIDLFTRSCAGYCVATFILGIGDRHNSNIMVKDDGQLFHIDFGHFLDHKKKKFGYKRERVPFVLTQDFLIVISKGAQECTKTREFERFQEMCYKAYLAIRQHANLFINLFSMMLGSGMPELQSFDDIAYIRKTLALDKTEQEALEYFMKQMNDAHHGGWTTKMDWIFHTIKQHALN
T1 sequence (P27986 whole entry partner): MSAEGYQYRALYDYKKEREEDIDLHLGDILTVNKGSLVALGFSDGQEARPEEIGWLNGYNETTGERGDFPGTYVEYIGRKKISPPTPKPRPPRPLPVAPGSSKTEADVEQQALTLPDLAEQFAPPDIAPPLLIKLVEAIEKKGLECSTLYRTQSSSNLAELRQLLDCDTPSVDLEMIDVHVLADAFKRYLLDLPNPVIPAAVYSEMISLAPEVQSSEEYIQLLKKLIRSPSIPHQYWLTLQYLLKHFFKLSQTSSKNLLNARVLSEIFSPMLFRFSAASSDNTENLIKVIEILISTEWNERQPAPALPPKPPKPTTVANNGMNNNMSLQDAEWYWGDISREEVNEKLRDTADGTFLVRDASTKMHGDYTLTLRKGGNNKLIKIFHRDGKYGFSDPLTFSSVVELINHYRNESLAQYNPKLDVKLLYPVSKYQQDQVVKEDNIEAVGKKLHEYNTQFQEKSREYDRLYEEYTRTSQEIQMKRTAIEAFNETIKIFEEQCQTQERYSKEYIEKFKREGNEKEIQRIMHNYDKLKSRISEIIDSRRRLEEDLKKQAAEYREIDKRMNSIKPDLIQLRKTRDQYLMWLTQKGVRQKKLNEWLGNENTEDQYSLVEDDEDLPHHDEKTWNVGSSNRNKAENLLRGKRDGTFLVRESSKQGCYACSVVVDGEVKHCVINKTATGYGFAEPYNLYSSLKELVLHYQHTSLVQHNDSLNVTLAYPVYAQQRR
T3 sequence (P42338 whole entry): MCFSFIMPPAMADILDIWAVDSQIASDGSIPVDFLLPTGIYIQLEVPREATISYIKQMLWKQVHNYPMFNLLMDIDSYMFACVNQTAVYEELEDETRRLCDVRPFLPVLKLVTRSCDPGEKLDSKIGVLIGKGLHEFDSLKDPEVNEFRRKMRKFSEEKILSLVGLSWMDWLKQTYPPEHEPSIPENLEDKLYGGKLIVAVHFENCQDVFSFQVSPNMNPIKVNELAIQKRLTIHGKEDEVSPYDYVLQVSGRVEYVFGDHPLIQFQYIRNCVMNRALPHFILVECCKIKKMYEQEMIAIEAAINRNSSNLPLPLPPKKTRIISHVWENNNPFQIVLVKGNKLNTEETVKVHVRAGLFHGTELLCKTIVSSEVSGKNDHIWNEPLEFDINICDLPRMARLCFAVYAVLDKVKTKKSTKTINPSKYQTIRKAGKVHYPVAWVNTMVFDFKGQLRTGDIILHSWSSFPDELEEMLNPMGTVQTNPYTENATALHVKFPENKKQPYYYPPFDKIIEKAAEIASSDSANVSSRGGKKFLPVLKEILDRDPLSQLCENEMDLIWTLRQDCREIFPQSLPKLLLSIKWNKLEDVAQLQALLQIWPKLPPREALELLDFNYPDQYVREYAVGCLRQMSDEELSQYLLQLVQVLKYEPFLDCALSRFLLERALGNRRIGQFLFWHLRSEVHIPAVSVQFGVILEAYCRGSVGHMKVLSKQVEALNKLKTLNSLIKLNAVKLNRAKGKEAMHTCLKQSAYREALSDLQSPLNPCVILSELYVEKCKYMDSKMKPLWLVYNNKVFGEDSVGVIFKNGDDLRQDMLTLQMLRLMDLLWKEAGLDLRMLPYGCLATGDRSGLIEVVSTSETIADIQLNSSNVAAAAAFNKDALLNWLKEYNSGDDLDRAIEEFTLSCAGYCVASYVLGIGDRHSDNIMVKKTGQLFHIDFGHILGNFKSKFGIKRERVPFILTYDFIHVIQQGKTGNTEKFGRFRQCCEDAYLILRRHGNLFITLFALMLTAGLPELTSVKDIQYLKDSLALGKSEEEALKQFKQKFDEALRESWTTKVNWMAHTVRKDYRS
T3 sequence (P27986 whole entry partner): as the sequence (P27986 whole entry partner) above
T2 sequence (P42345 1360-2549 limits assumed): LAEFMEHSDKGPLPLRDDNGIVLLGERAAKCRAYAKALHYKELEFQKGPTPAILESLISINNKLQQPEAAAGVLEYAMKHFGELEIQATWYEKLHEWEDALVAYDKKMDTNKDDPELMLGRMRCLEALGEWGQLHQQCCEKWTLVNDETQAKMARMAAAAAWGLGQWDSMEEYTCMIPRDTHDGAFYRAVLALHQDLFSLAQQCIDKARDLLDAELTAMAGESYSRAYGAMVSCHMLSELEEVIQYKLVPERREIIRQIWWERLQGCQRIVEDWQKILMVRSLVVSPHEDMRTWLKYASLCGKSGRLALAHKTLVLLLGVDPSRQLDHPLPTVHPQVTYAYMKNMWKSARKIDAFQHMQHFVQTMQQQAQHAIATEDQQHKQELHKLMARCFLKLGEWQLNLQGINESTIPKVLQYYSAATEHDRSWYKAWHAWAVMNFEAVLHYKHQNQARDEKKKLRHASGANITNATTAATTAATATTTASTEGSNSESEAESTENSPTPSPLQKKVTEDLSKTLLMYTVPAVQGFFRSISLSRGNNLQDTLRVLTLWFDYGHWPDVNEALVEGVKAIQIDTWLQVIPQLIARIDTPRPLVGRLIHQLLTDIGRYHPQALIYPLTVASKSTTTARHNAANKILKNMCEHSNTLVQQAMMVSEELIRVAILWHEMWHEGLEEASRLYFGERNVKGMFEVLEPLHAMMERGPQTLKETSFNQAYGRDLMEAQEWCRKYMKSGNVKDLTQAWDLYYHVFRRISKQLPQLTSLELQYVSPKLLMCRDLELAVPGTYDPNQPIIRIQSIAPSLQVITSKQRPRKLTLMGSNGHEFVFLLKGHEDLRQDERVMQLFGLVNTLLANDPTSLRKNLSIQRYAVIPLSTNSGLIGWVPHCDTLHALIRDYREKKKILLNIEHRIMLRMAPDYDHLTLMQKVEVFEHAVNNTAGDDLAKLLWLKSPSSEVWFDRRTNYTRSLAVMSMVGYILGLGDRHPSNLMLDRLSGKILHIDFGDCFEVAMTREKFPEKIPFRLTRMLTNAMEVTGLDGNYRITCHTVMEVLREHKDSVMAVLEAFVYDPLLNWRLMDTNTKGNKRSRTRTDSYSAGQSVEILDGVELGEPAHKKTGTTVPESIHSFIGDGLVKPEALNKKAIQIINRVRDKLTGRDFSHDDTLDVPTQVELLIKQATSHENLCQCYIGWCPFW

Structure (SMILES) | Ki [1] [µM] | IC50 [2] [µM] | IC50 [3] [µM] | IC50 [4] [µM] | IC50 [5] [µM]
COCC(C)Nc1ccnc2ccc(-c3cnc(Cl)c(NS(=O)(=O)c4ccc(F)cc4)c3)cc12 (centres unmarked) [Example 99, N-(2-chloro-5-(4-((2-methoxy-1-methylethyl)amino)-6-quinolinyl)-3-pyridinyl)-4-fluorobenzenesulfonamide] | 0.121 | 2.39 | – | – | –
COc1ccc(S(=O)(=O)Nc2cc(-c3ccc4c(c3)OCCO4)cnc2Cl)cc1 [Example 127, N-(2-Chloro-5-(2,3-dihydrobenzo[b][1,4]dioxin-6-yl)pyridin-3-yl)-4-methoxybenzenesulfonamide] | 0.0273 | 0.0651 | – | – | –
O=C1COc2ccc(-c3cnc(Cl)c(NS(=O)(=O)c4ccc(F)cc4)c3)cc2N1 [Example 129, N-(2-Chloro-5-(3-oxo-3,4-dihydro-2H-benzo[b][1,4]oxazin-6-yl)pyridin-3-yl)-4-fluorobenzenesulfonamide] | 0.0858 | – | – | – | –
COCC1CCCN1c1cnc2ccc(-c3cnc(Cl)c(NS(=O)(=O)c4ccc(F)cc4)c3)cc2n1 (centres unmarked) [Example 68, N-(2-chloro-5-(3-(2-(methoxymethyl)-1-pyrrolidinyl)-6-quinoxalinyl)-3-pyridinyl)-4-fluorobenzenesulfonamide] | – | – | 0.0081 | 0.0358 | 0.0434
CC(c1ccccc1)N1CCN(c2ccnc3ccc(-c4cnc(Cl)c(NS(=O)(=O)c5ccc(F)cc5)c4)cc23)CC1 (centres unmarked) [Example 29, N-(2-chloro-5-(4-(4-(1-phenylethyl)-1-piperazinyl)-6-quinolinyl)-3-pyridinyl)-4-fluorobenzenesulfonamide] | – | – | 0.0069 | 0.0449 | 0.345
O=S(=O)(Nc1cc(-c2ccc3ncc(NCCOc4ccccc4)nc3c2)cnc1Cl)c1ccc(F)cc1 [Example 57, N-(2-chloro-5-(3-((2-phenoxyethyl)amino)-6-quinoxalinyl)-3-pyridinyl)-4-fluorobenzenesulfonamide] | – | – | 0.0022 | 0.0079 | 0.0451
O=S(=O)(Nc1cc(-c2ccc3nccc(N4CCCC(O)CC4)c3c2)cnc1Cl)c1ccc(F)cc1 (centres unmarked) [Example 95, N-(2-chloro-5-(4-(4-hydroxy-1-azepanyl)-6-quinolinyl)-3-pyridinyl)-4-fluorobenzenesulfonamide] | 0.0058 | 0.111 | – | – | –
CC(C)(C)OC(=O)N1CCCC(CNc2cnc3ccc(-c4cnc(Cl)c(NS(=O)(=O)c5ccc(F)cc5)c4)cc3n2)C1 (centres unmarked) [Example 59, tert-butyl 3-(((7-(6-chloro-5-(((4-fluorophenyl)sulfonyl)amino)-3-pyridinyl)-2-quinoxalinyl)amino)methyl)-1-piperidinecarboxylate] | – | – | 0.0031 | 0.0225 | 0.136
O=S(=O)(Nc1cc(-c2ccc3ncc(NCC4CCCNC4)nc3c2)cnc1Cl)c1ccc(F)cc1 (centres unmarked) [Example 74, N-(2-chloro-5-(3-((3-piperidinylmethyl)amino)-6-quinoxalinyl)-3-pyridinyl)-4-fluorobenzenesulfonamide] | – | – | 0.0192 | 0.0463 | 2.63
CC1CN(c2ccnc3ccc(-c4cnc(Cl)c(NS(=O)(=O)c5ccc(F)cc5)c4)cc23)CC(C)O1 (centres unmarked) [Example 30, N-(2-chloro-5-(4-(2,6-dimethyl-4-morpholinyl)-6-quinolinyl)-3-pyridinyl)-4-fluorobenzenesulfonamide] | – | – | 0.0041 | 0.0302 | 0.0228
CC1CN(c2cnc3ccc(-c4cnc(Cl)c(NS(=O)(=O)c5ccc(F)cc5)c4)cc3n2)CC(C)O1 (centres unmarked) [Example 67, N-(2-chloro-5-(3-(2,6-dimethyl-4-morpholinyl)-6-quinoxalinyl)-3-pyridinyl)-4-fluorobenzenesulfonamide] | – | – | 0.0029 | 0.0648 | 0.0203
CS(=O)(=O)Nc1cc(-c2ccc3ncccc3c2)cnc1Cl [Example 12, N-(2-chloro-5-(6-quinolinyl)-3-pyridinyl)methanesulfonamide] | – | – | 0.0689 | 0.365 | 2.65
O=S(=O)(Nc1cc(-c2ccc3ncccc3c2)cnc1Cl)c1ccc(F)cc1 [Example 7, N-(2-chloro-5-(6-quinolinyl)-3-pyridinyl)-4-fluorobenzenesulfonamide] | – | – | 0.0099 | 0.0277 | 1.3
O=S(=O)(Nc1cc(-c2ccc3nccc(OCC4CCSCC4)c3c2)cnc1Cl)c1ccc(F)cc1 [Example 100, N-(2-chloro-5-(4-(tetrahydro-2H-thiopyran-4-ylmethoxy)-6-quinolinyl)-3-pyridinyl)-4-fluorobenzenesulfonamide] | 0.0012 | 0.04 | – | – | –
CS(=O)(=O)Nc1cc(-c2ccc3nccc(Oc4ccccc4)c3c2)cnc1Cl [Example 5, N-(2-chloro-5-(4-phenoxy-6-quinolinyl)-3-pyridinyl)methanesulfonamide] | – | – | 0.255 | 0.105 | 1.14
O=S(=O)(Nc1cc(-c2ccc3nccc(N4CCC(O)CC4)c3c2)cnc1Cl)c1ccc(F)cc1 [Example 27, N-(2-chloro-5-(4-(4-hydroxy-1-piperidinyl)-6-quinolinyl)-3-pyridinyl)-4-fluorobenzenesulfonamide] | – | – | 0.0041 | 0.0126 | 0.176
CC(C)(C)OC(=O)NCCOc1ccnc2ccc(-c3cnc(Cl)c(NS(=O)(=O)c4ccc(F)cc4)c3)cc12 [Example 3, tert-butyl(2-((6-(6-chloro-5-(((4-fluorophenyl)sulfonyl)amino)-3-pyridinyl)-4-quinolinyl)oxy)ethyl)carbamate] | – | – | 0.0678 | 0.682 | 1.66
Nc1nc2ccc(-c3cnc(Cl)c(NS(=O)(=O)c4ccc(F)cc4)c3)cc2[nH]c1=O [Example 43, N-(5-(2-amino-3-oxo-3,4-dihydro-6-quinoxalinyl)-2-chloro-3-pyridinyl)-4-fluorobenzenesulfonamide] | – | – | 0.0169 | 0.0648 | 5.04
O=S(=O)(Nc1cc(N2CCc3ncccc3C2)cnc1Cl)c1ccc(F)cc1 [Example 135, N-(2-Chloro-5-(7,8-dihydro-1,6-naphthyridin-6(5H)-yl)pyridin-3-yl)-4-fluorobenzenesulfonamide] | 0.0638 | 0.218 | – | – | –
COc1ccc(CNc2cnc3ccc(-c4cnc(Cl)c(NS(=O)(=O)c5ccc(F)cc5)c4)cc3n2)cc1 [Example 63, N-(2-chloro-5-(3-((4-methoxybenzyl)amino)-6-quinoxalinyl)-3-pyridinyl)-4-fluorobenzenesulfonamide] | – | – | 0.0056 | 0.0502 | 0.158
O=S(=O)(Nc1cc(-c2ccc3nccc(-c4ccccc4)c3c2)cnc1Cl)c1ccc(F)cc1 [Example 36, N-(2-chloro-5-(4-phenyl-6-quinolinyl)-3-pyridinyl)-4-fluorobenzenesulfonamide] | – | – | 0.0071 | 0.0149 | 0.0914
